Entries after “also recorded” stand apart in the source; their conditions may differ.
What was measured:
[1] = system: MDA-MB-231 breast cancer cells; assay: Tumor vascularity by CD31 immuno-staining of xenograft tumors; format: in vivo, athymic nude mice; details: 500 mg/kg daily i.p.; primary xenograft tumors
Protocol: Tumor angiogenesis could account for the tumor-promoting properties of 3-hydroxy-butyrate. Thus, the status of tumor vascularity was evaluated using antibodies directed against CD31. However, the vascular density (number of vessels per field) was not increased by the administration of either 3-hydroxy-butyrate or L-lactate. Thus, other mechanisms, such as the “Reverse Warburg Effect” may be operating to increase tumor growth. n.s., not significant.
One mechanism that could account for the tumor-promoting properties of 3-hydroxy-butyrate is increased tumor angiogenesis. Thus, the status of tumor vascularity using antibodies directed against CD31 was evaluated. […] Thus, other mechanisms, such as the “Reverse Warburg Effect” may be operating to increase tumor growth.

[2] = system: MDA-MB-231 breast cancer cells; assay: MDA-MB-231 flank xenograft tumor growth; format: in vivo, athymic nude mice; details: 500 mg/kg daily i.p.; tumor volume at 3 weeks post tumor cell injection
Protocol: A xenograft model was employed in which MDA-MB-231 breast cancer cells injected into the flanks of athymic nude mice to evaluate the potential tumor promoting properties of the products of aerobic glycolysis (such as 3-hydroxy-butyrate and L-lactate). Tumor growth was assessed by measuring tumor volume, at 3-weeks post tumor cell injection. During this time period, mice were administered either PBS alone, or PBS containing 3-hydroxy-butyrate (500 mg/kg) or L-lactate (500 mg/kg), via daily intra-peritoneal (i.p.) injections. Note that 3-hydroxy-butyrate is sufficient to promote an ˜2.5-fold increase in tumor growth, relative to the PBS-alone control. Under these conditions.
To evaluate the potential tumor promoting properties of the products of aerobic glycolysis (such as 3-hydroxy-butyrate and L-lacate), a xenograft model employing MDA-MB-231 breast cancer cells injected into the flanks of athymic nude mice was used. Tumor growth was assessed by measuring tumor volume, at 3-weeks post tumor cell injection. During this time period, mice were administered either PBS alone, or PBS containing 3-hydroxy-butyrate (500 mg/kg) or L-lactate (500 mg/kg), via daily intra-peritoneal (i.p.) injections.

[3] = system: MDA-MB-231 cells; assay: Modified Boyden Chamber (Transwell) cell migration assay; format: cell-based, human; details: 10 mM in lower chamber
Protocol: 3-hydroxy-butyrate or L-lactate can function as chemo-attractants. shown using a modified “Boyden Chamber” assay, employing Transwell cell culture inserts. MDA-MB-231 cells were placed in the upper chambers, and 3-hydroxy-butyrate (10 mM) or L-lactate (10 mM) were introduced into the lower chambers. Note that both 3-hydroxy-butyrate and L-lactate promoted cancer cell migration by nearly 2-fold. *p<0.05, control (vehicle alone) versus 3-hydroxy-butyrate or L-lactate (Student's t-test).
Next, whether 3-hydroxy-butyrate or L-lactate can function as chemo-attractants was assessed, using a modified “Boyden Chamber” assay, employing Transwell cell culture inserts. MDA-MB-231 cells were placed in the upper chambers, and 3-hydroxy-butyrate (10 mM) or L-lactate (10 mM) were introduced into the lower chambers. […] Thus, the metabolic products of aerobic glycolysis can also function as chemo-attractants for cancer cells, probably via a form of nutrient sensing.

[4] = system: MDA-MB-231 cells; assay: Lung colonization (metastasis) assay, tail vein injection; format: in vivo, athymic nude mice; details: 7 weeks post-injection; India ink staining
Protocol: To examine the effect of 3-hydroxy-butyrate and L-lactate on cancer cell metastasis, a well-established lung colonization assay was used, where MDA-MB-231 cells are injected into the tail vein of athymic nude mice. After 7 weeks post-injection, the lungs were harvested and the metastases were visualized with India ink staining. Using this approach, the lung parenchyma stains black, while the tumor metastatic foci remain unstained, and appear white. The number of metastases per lung lobe was scored. Note that relative to PBS-alone, the administration of L-lacate stimulated the formation of metastatic foci by ˜10-fold. Under these conditions, 3-hydroxy-butryate had no effect on metastasis formation. *p<0.01, PBS alone versus L-lactate (Student's t-test and ANOVA); *p<0.05, PBS alone versus L-lactate (Mann-Whitney test).
The effect of 3-hydroxy-butyrate and L-lactate on cancer cell metastasis were measured. For this purpose, a well-established lung colonization assay was used, where MDA-MB-231 cells are injected into the tail vein of athymic nude mice. After 7 weeks post-injection, the lungs were harvested and the metastases were visualized with India ink staining. In this method, the lung parenchyma stains black, while the tumor metastatic foci remain unstained, and appear white. For quantitation purposes. the number of metastases per lung lobe was scored.

[5] = system: MCF7 cancer cells; details: L-lactate added to culture media; cited from earlier work

| SMILES | vascular density (number of vessels per field), CD31 [1] | increase in tumor growth (tumor volume) relative to PBS-alone control [2] | promotion of cancer cell migration versus vehicle alone [3] [fold] | formation of lung metastatic foci (metastases per lung lobe) relative to PBS-alone [4] | mitochondrial mass [5] | appearance of lung metastatic foci versus PBS-alone controls (representative images) [4] |
| --- | --- | --- | --- | --- | --- | --- |
| CC(O)CC(=O)O (stereo not shown) [3-hydroxy-butyrate] | not increased; also recorded: without any significant increases | ~2.5 fold | ~2 | no effect |  |  |
| C[C@H](O)C(=O)O [L-lactate] | not increased | no significant effect; also recorded: did not increase | ~2 | ~10 fold | dramatically increase | more numerous, and are also larger in size |
